Results taken from ChEMBL document CHEMBL2074304, “Primary active transport of peptidic endothelin antagonists by rat hepatic canalicular membrane” (J Pharmacol Exp Ther, 1999).
Square brackets hold non-standard residues; d marks the D form. Peptide text beside a SMILES is read from it. * marks the point of attachment. dGly(2-thienyl) = N[C@@H](C(=O)O)c1cccs1; Moc = COC(=O)*

B1: ATP-binding cassette sub-family C member 2 (Rattus norvegicus) (protein)
chain: MDKFCNSTFWDLSLLESPEADLPLCFEQTVLVWIPLGFLWLLAPWQLYSVYRSRTKRSSITKFYLAKQVFVVFLLILAAIDLSLALTEDTGQATVPPVRYTNPILYLCTWLLVLAVQHSRQWCVRKNSWFLSLFWILSVLCGVFQFQTLIRALLKDSKSNMAYSYLFFVSYGFQIVLLILTAFSGPSDSTQTPSVTASFLSSITFSWYDRTVLKGYKHPLTLEDVWDIDEGFKTRSVTSKFEAAMTKDLQKARQAFQRRLQKSQRKPEATLHGLNKKQSQSQDVLVLEEAKKKSEKTTKDYPKSWLIKSLFKTFHVVILKSFILKLIHDLLVFLNPQLLKLLIGFVKSSNSYVWFGYICAILMFAVTLIQSFCLQSYFQHCFVLGMCVRTTVMSSIYKKALTLSNLARKQYTIGETVNLMSVDSQKLMDATNYMQLVWSSVIQITLSIFFLWRELGPSILAGVGVMVLLIPVNGVLATKIRNIQVQNMKNKDKRLKIMNEILSGIKILKYFAWEPSFQEQVQGIRKKELKNLLRFGQLQSLLIFILQITPILVSVVTFSVYVLVDSANVLNAEKAFTSITLFNILRFPLSMLPMVTSSILQASVSVDRLERYLGGDDLDTSAIRRVSNFDKAVKFSEASFTWDPDLEATIQDVNLDIKPGQLVAVVGTVGSGKSSLVSAMLGEMENVHGHITIQGSTAYVPQQSWIQNGTIKDNILFGSEYNEKKYQQVLKACALLPDLEILPGGDMAEIGEKGINLSGGQKQRVSLARAAYQDADIYILDDPLSAVDAHVGKHIFNKVVGPNGLLAGKTRIFVTHGIHFLPQVDEIVVLGKGTILEKGSYRDLLDKKGVFARNWKTFMKHSGPEGEATVNNDSEAEDDDDGLIPTMEEIPEDAASLAMRRENSLRRTLSRSSRSSSRRGKSLKNSLKIKNVNVLKEKEKEVEGQKLIKKEFVETGKVKFSIYLKYLQAVGWWSILFIILFYGLNNVAFIGSNLWLSAWTSDSDNLNGTNNSSSHRDMRIGVFGALGLAQGICLLISTLWSIYACRNASKALHGQLLTNILRAPMRFFDTTPTGRIVNRFSGDISTVDDLLPQTLRSWMMCFFGIAGTLVMICMATPVFAIIIIPLSILYISVQVFYVATSRQLRRLDSVTKSPIYSHFSETVTGLPIIRAFEHQQRFLAWNEKQIDINQKCVFSWITSNRWLAIRLELVGNLVVFCSALLLVIYRKTLTGDVVGFVLSNALNITQTLNWLVRMTSEAETNIVAVERISEYINVENEAPWVTDKRPPADWPRHGEIQFNNYQVRYRPELDLVLKGITCNIKSGEKVGVVGRTGAGKSSLTNCLFRILESAGGQIIIDGIDVASIGLHDLRERLTIIPQDPILFSGSLRMNLDPFNKYSDEEVWRALELAHLRSFVSGLQLGLLSEVTEGGDNLSIGQRQLLCLGRAVLRKSKILVLDEATAAVDLETDSLIQTTIRKEFSQCTVITIAHRLHTIMDSDKIMVLDNGKIVEYGSPEELLSNRGSFYLMAKEAGIENVNHTEL

Assays:
Type in all cases: functional, cell membranes, Sprague-Dawley, Bile canalicular membrane vesicle
[1] = target: T1, ATP-binding cassette sub-family C member 2 (Rattus norvegicus, UniProt Q63120); assay: TP_TRANSPORTER: inhibition of BQ-485 uptake in bile canalicular membrane vesicles from SD rat
[2] = target: T1, ATP-binding cassette sub-family C member 2; assay: TP_TRANSPORTER: inhibition of BQ-123 uptake in bile canalicular membrane vesicles from SD rat
[3] = substrate: [H][C@@]12CCCN1C(=O)[C@@H](CC(=O)O)NC(=O)[C@@H](Cc1c[nH]c3ccccc13)NC(=O)[C@H](CC(C)C)NC(=O)[C@@H](c1cccs1)NC2=O; assay: (§1) TP_TRANSPORTER: uptake in bile canalicular membrane vesicles from SD rat
[4] = substrate: CC(C)C[C@@H]1NC(=O)[C@@H](C(C)C)NC(=O)[C@@H]2CCCN2C(=O)[C@@H](CC(=O)O)NC(=O)[C@@H](Cc2c[nH]c3ccccc23)NC1=O; assay: as §1
[5] = substrate: CC(C)C[C@H](NC(=O)N1CCCCCC1)C(=O)N[C@H](Cc1c[nH]c2ccccc12)C(=O)N[C@H](Cc1c[nH]c2ccccc12)C(=O)O; assay: as §1

| Molecule | Ki [2] [µM] | further results |
| --- | --- | --- |
| CC(C)C[C@@H]1NC(=O)[C@@H](C(C)C)NC(=O)[C@@H]2CCCN2C(=O)[C@@H](CC(=O)O)NC(=O)[C@@H](Cc2c[nH]c3ccccc23)NC1=O [BQ-123] (cyclo(L[dW][dD]P[dV])) |  | Ki [1]: 84.1 µM |
| CC(C)C[C@H](NC(=O)N1CCCCCC1)C(=O)N[C@H](Cc1c[nH]c2ccccc12)C(=O)NC(C)CC(=O)O (stereo not given in full) | 40 |  |
| CC(C)C[C@H](NC(=O)N1CCCCCC1)C(=O)N[C@H](Cc1c[nH]c2ccccc12)C(=O)N[C@H](Cc1c[nH]c2ccccc12)C(=O)O | 8.32 |  |
| COC(=O)n1cc(C[C@H]2NC(=O)[C@H](CC(C)C)NC(=O)[C@@H](C(C)C)NC(=O)[C@@H]3CCCN3C(=O)[C@@H](CC(=O)O)NC2=O)c2ccccc21 (cyclo(L[dW](Moc)[dD]P[dV])) | 54.1 |  |
| CC(C)C[C@@H]1NC(=O)[C@@H](c2cccs2)NC(=O)[C@@H]2CCCN2C(=O)[C@@H](CC(=O)O)NC(=O)[C@@H](Cc2c[nH]c3ccccc23)NC1=O (cyclo(L[dW][dD]P[dGly(2-thienyl)])) | 65.5 |  |
| CC(C)C[C@@H]1NC(=O)[C@@H](C(C)C)NC(=O)[C@@H]2C[C@H](OC(=O)[C@@H](N)CCCNC(=N)N)CN2C(=O)[C@@H](CC(=O)O)NC(=O)[C@@H](Cc2c[nH]c3ccccc23)NC1=O | 1.01 |  |
| CC(C)C[C@@H]1NC(=O)[C@@H](C(C)C)NC(=O)[C@@H]2C[C@@H](OC(=O)[C@H](CCCCN)N(C)C)CN2C(=O)[C@@H](CC(=O)O)NC(=O)[C@@H](Cc2c[nH]c3ccccc23)NC1=O | 85.4 |  |
| B1 |  | Km [3]: 15.1 µM; Km [4]: 97.8 µM; Km [5]: 6.46 µM |
